Experimental data taken from patent publication US20240374581A1, “SALT TYPES OF TRICYCLIC TETRAHYDRO ISOQUINOLINE DERIVATIVE” (JIANGSU HENGRUI PHARMACEUTICALS CO., LTD., priority 2021, published 2024).

Key:
MCF-7 cells = assay: Inhibition of proliferation of MCF-7 cells (ATP method); assay type: cell-based; settings: Homo sapiens, MCF7; 72 h, Cell Titer-Glo; read-out: IC50, inhibitory effect on proliferation of MCF-7 cells
Experimental: This experiment was intended to test the inhibitory effect of the compound disclosed herein on the proliferation of MCF-7 cells by using the ATP method, and to evaluate the in vitro activity of the compound according to the IC50 value.
MCF-7 cells (TCHu74, National Collection of Authenticated Cell Cultures) were seeded into a 96-well plate with an MEM (hyclone, SH30024.01B) medium containing 10% FBS (Gibco, 10099-141), 1% sodium pyruvate (sigma, S8636) and 1% non-essential amino acid (sigma, M7145) at a density of 4,000 cells/well and cultured at 37° C. with 5% CO2. 20 mM stock solution of the compound was prepared, serially diluted with 100% DMSO to a final concentration of 1000×, and then diluted 20-fold with a medium containing 2% FBS. After the cells were cultured for 24 h, the medium was removed. 90 μL of the medium containing 2% FBS and 10 μL of a drug were added to each well, and 10 μL of DMSO was added to the control group. The mixtures were well mixed by gentle shaking. The blank group contained only 100 μL of the medium containing 2% FBS. The cells were cultured in an incubator at 37° C. with 5% CO2 for 72 h, and then 50 μL of mixed Cell Titer-Glo (Promega, G7571) was added to each well. The mixtures were well mixed by shaking and let stand at room temperature for 10 min, and the chemiluminescence signal value was determined. […]

CYP3A4 = CYP3A4 (Homo sapiens (Human), UniProt P08684); assay: Time-dependent inhibition of site of metabolism of testosterone in human liver microsome CYP3A4; assay type: in vitro ADME; settings: for IC50: testosterone site
Chain of CYP3A4 (P08684 whole entry): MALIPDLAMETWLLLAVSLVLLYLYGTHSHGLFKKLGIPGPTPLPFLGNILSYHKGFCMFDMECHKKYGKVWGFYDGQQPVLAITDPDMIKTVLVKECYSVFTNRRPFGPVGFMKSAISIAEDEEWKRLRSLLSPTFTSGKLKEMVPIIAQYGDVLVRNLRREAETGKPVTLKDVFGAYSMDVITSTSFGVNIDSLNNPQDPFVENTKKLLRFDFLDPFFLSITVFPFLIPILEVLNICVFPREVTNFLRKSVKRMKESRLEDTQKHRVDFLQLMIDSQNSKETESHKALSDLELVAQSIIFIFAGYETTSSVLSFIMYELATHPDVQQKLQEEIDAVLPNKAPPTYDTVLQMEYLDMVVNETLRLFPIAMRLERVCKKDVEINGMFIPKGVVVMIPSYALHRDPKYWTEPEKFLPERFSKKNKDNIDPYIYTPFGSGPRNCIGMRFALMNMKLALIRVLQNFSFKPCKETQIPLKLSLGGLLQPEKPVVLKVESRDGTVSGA
Experimental: • 1. Phosphate buffer (20×PBS, purchased from Sangon); • 2. NADPH (ACROS, A2646-71-1); • 3. Human liver microsome (Corning Gentest, Cat No. 452161, Lot No. 905002, Donor36); • 4. ABI QTrap 4000 LC-MS System (AB Sciex); • 5. ZORBAX Extend-C18, 3×50 mm, 3.5 m (Agilent, USA); • 6. CYP probe substrate (testosterone, Vocko, CAS No. [58-22-0]/75 μM) and positive control inhibitor (verapamil, Adamas Reagent Co., Ltd, Cat No. 25904A).
A 100 mM PBS buffer was prepared. A 0.25 mg/mL microsome solution, a 7.5 mM MgCl2 and a 5 mM NADPH solution were prepared using the buffer. A 30 mM stock solution was diluted with DMSO to obtain 30 mM, 10 mM, 3 mM, 1 mM, 0.3 mM, 0.1 mM, 0.03 mM and 0 mM serial solutions I, which were further diluted 200-fold with phosphate buffer (PBS) to obtain serial test solutions II (150, 50, 15, 5, 1.5, 0.5, 0.15 and 0 μM). A midazolam working solution was diluted with PBS to 15 μM.
The serial test solutions prepared above were well mixed by shaking and aliquoted in 20 μL portions into corresponding reaction plates (+NADPH, TO and -NADPH groups were set). Three parallel tests were set. 40 μL of the liver microsome working solution was added to each 96-well plate. 20 μL of a corresponding substrate solution was added to the TO plate. 20 μL of NADPH was added to the TO plate and +NADPH group. A timer was started, and the plates were incubated in a water bath at 37° C. After 30 min of incubation, the TO plate was taken out, and the reaction was terminated with 250 μL of an internal standard-containing ACN solution. The +NADPH group was supplemented with 20 μL of the corresponding substrate solution, and the −NADPH group was supplemented with 20 μL of the corresponding substrate solution and 20 μL of NADPH. A timer was started, and the plates were incubated in a water bath at 37° C. After 30 min of incubation, the plates were taken out, and the reactions were terminated with 250 μL of an internal standard-containing ACN solution. […]
The IC50 value of the drug for the site of metabolism of testosterone in CYP3A4 was calculated by Graphpad Prism and is shown in Table 8.

[1] = Influencing factor stability study

**Q.** Which IC50 (MCF-7 cells) does the source give for `[2H]C1([2H])Oc2cc3c(cc2O1)[C@@H](c1ccc(NC2CN(CCCF)C2)cn1)N(CC(F)(F)CO)[C@H](C)C3` [Compound 1, 2,2-Difluoro-3-((5S,7R)-5-(5-((1-(3-fluoropropyl)azetidin-3-yl)amino)pyridin-2-yl)-7-methyl-7,8-dihydro-[1,3]dioxolo[4,5-g]isoquinolin-6(5H)-yl-2,2-d2)propan-1-ol] here?
**A.** Its IC50 is 0.00029 µM.

**Q.** What about the “IC50 Shift” value (CYP3A4; microsomes) of the same molecule?
**A.** Its value is “No TDI”.

**Q.** What about the IC50 (CYP3A4; pre-incubation with NADPH 30 min) of the same molecule?
**A.** The IC50 was > 30 µM.

**Q.** And the IC50 (CYP3A4; pre-incubation without NADPH)?
**A.** Its IC50 is > 30 µM.

**Q.** And the Crystal form ([1]; 40° C., 1 month)?
**A.** The Crystal form was “Amorphous form”.

**Q.** What about the “Purity (%)” value ([1]; 40° C., 1 month) of the same molecule?
**A.** The value was 95.4%.

**Q.** What about the Crystal form ([1]; 40° C., 5 days) of the same molecule?
**A.** The Crystal form was “Amorphous form”.

**Q.** And the “Purity (%)” value ([1]; 40° C., 5 days)?
**A.** The value was 96.7%.

**Q.** And the Crystal form ([1]; 40° C., 10 days)?
**A.** Its Crystal form is “Amorphous form”.

**Q.** What about the “Purity (%)” value ([1]; 40° C., 10 days) of the same molecule?
**A.** The value was 96.5%.

**Q.** What about the Crystal form ([1]; 60° C., 1 month) of the same molecule?
**A.** Its Crystal form is “Amorphous form”.

**Q.** And the “Purity (%)” value ([1]; 60° C., 1 month)?
**A.** The value was 87.6%.

**Q.** And the Crystal form ([1]; 60° C., 5 days)?
**A.** Its Crystal form is “Amorphous form”.

**Q.** And the “Purity (%)” value ([1]; 60° C., 5 days)?
**A.** The value was 95.7%.

**Q.** And the Crystal form ([1]; 60° C., 10 days)?
**A.** Its Crystal form is “Amorphous form”.

**Q.** What about the “Purity (%)” value ([1]; 60° C., 10 days) of the same molecule?
**A.** Its value is 94.2%.

**Q.** What about the “behaviour under the high-humidity conditions (conclusion)” value ([1]; 75% RH and 92.5% RH, 30 days) of the same molecule?
**A.** The value was “deliquesced”.

**Q.** What about the Crystal form ([1]; 75% RH, 1 month) of the same molecule?
**A.** The Crystal form was “Deliquescence”.

**Q.** And the “Purity (%)” value ([1]; 75% RH, 1 month)?
**A.** Its value is 96.9%.

**Q.** And the Crystal form ([1]; 75% RH, 5 days)?
**A.** Its Crystal form is “Amorphous form”.

**Q.** What about the “Purity (%)” value ([1]; 75% RH, 5 days) of the same molecule?
**A.** The value was 97.0%.

**Q.** And the Crystal form ([1]; 75% RH, 10 days)?
**A.** Its Crystal form is “Amorphous form”.

**Q.** What about the “Purity (%)” value ([1]; 75% RH, 10 days) of the same molecule?
**A.** Its value is 97.0%.

**Q.** And the Crystal form ([1]; 92.5% RH, 1 month)?
**A.** Its Crystal form is “Deliquescence”.

**Q.** And the “Purity (%)” value ([1]; 92.5% RH, 1 month)?
**A.** The value was 97.0%.

**Q.** And the Crystal form ([1]; 92.5% RH, 5 days)?
**A.** Its Crystal form is “Amorphous form”.

**Q.** And the “Purity (%)” value ([1]; 92.5% RH, 5 days)?
**A.** Its value is 96.9%.

**Q.** What about the Crystal form ([1]; 92.5% RH, 10 days) of the same molecule?
**A.** The Crystal form was “Amorphous form”.

**Q.** And the “Purity (%)” value ([1]; 92.5% RH, 10 days)?
**A.** Its value is 97.0%.

**Q.** And the Crystal form ([1]; 4500 Lux, 1 month)?
**A.** The Crystal form was “Amorphous form”.

**Q.** And the “Purity (%)” value ([1]; 4500 Lux, 1 month)?
**A.** The value was 71.7%.

**Q.** And the Crystal form ([1]; 4500 Lux, 5 days)?
**A.** The Crystal form was “Amorphous form”.

**Q.** What about the “Purity (%)” value ([1]; 4500 Lux, 5 days) of the same molecule?
**A.** The value was 94.0%.

**Q.** What about the Crystal form ([1]; 4500 Lux, 10 days) of the same molecule?
**A.** Its Crystal form is “Amorphous form”.

**Q.** And the “Purity (%)” value ([1]; 4500 Lux, 10 days)?
**A.** The value was 89.9%.

**Q.** And the Crystal form ([1]; Initial, 0 days)?
**A.** Its Crystal form is “Amorphous form”.

**Q.** What about the “Purity (%)” value ([1]; Initial, 0 days) of the same molecule?
**A.** Its value is 97.1%.
